In ChEMBL document CHEMBL1201862, “PubChem BioAssay data set” (2004):
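Test compounds were applied to cells in 96-well plates for 48 hours at 5 doses. Abbreviation: GI50, concentration required for 50% inhibition of growth.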 Calls of active or inactive are those of the source. Cut-off read from the data, not from the text of the source: active = GI50 up to about 1.1 µM and inactive = higher.

Legend:
Assay in all cases: NCI tumour cell line growth inhibition, 48 h
HOP-92 = test system: HOP-92
SK-MEL-28 = test system: SK-MEL-28
COLO 205 = test system: COLO 205
NCI-H460 = test system: NCI-H460
NCI-H226 = test system: NCI-H226
TK-10 = test system: TK-10
ACHN = test system: ACHN
SK-OV-3 = test system: SK-OV-3
SNB-75 = test system: SNB-75
HL-60 = test system: HL-60
HT-29 = test system: HT-29
SK-MEL-5 = test system: SK-MEL-5
HCT-116 = test system: HCT-116
DLD-1 = test system: DLD-1
RPMI-8226 = test system: RPMI-8226
KM-20L2 = test system: KM-20L2
U-251 = test system: U-251
OVCAR-3 = test system: OVCAR-3
OVCAR-5 = test system: OVCAR-5
A549 = test system: A549
MOLT-4 = test system: MOLT-4
HOP-18 = test system: HOP-18
IGROV-1 = test system: IGROV-1
NCI-H522 = test system: NCI-H522
M14 = test system: M14
HOP-62 = test system: HOP-62
UACC-257 = test system: UACC-257
SK-MEL-2 = test system: SK-MEL-2
HCC 2998 = test system: HCC 2998
Malme-3M = test system: Malme-3M
OVCAR-4 = test system: OVCAR-4
NCI-H23 = test system: NCI-H23
K562 = test system: K562
SF-539 = test system: SF-539
786-0 = test system: 786-0
SN12C = test system: SN12C
LXFL 529 = test system: LXFL 529
HCT-15 = test system: HCT-15
M19-MEL = test system: M19-MEL
SNB-78 = test system: SNB-78
LOX IMVI = test system: LOX IMVI
CCRF-CEM = test system: CCRF-CEM
SF-295 = test system: SF-295
EKVX = test system: EKVX
RXF 631 = test system: RXF 631
SF-268 = test system: SF-268
KM12 = test system: KM12
DMS-273 = test system: DMS-273
SR = test system: SR
UACC-62 = test system: UACC-62
CAKI-1 = test system: CAKI-1
DMS-114 = test system: DMS-114
SNB-19 = test system: SNB-19
A498 = test system: A498
SW-620 = test system: SW-620
UO-31 = test system: UO-31
OVCAR-8 = test system: OVCAR-8
XF498 = test system: XF498

O=C1C(Cl)=C(Cl)C(=O)N1c1ccc(Cl)c(Cl)c1Cl
GI50 (HOP-92): 24.7 µM (inactive)
GI50 (SK-MEL-28): > 100 µM (inactive)
GI50 (COLO 205): 29.9 µM (inactive)
GI50 (NCI-H460): > 100 µM (inactive)
GI50 (NCI-H226): > 100 µM (inactive)
GI50 (TK-10): > 100 µM (inactive)
GI50 (ACHN): 75 µM (inactive)
GI50 (SK-OV-3): > 100 µM (inactive)
GI50 (SNB-75): > 100 µM (inactive)
GI50 (HL-60): 24.3 µM (inactive)
GI50 (HT-29): 51.4 µM (inactive)
GI50 (SK-MEL-5): > 100 µM (inactive)
GI50 (HCT-116): 85.9 µM (inactive)
GI50 (DLD-1): 34.9 µM (inactive)
GI50 (RPMI-8226): 34 µM (inactive)
GI50 (KM-20L2): > 100 µM (inactive)
GI50 (U-251): > 100 µM (inactive)
GI50 (OVCAR-3): 41.6 µM (inactive)
GI50 (OVCAR-5): > 100 µM (inactive)
GI50 (A549): > 100 µM (inactive)
GI50 (MOLT-4): 32.6 µM (inactive)
GI50 (HOP-18): > 100 µM (inactive)
GI50 (IGROV-1): > 100 µM (inactive)
GI50 (NCI-H522): 14.4 µM (inactive)
GI50 (M14): 52.7 µM (inactive)
GI50 (HOP-62): > 100 µM (inactive)
GI50 (UACC-257): > 100 µM (inactive)
GI50 (SK-MEL-2): > 100 µM (inactive)
GI50 (HCC 2998): > 100 µM (inactive)
GI50 (Malme-3M): 31.6 µM (inactive)
GI50 (OVCAR-4): 28.4 µM (inactive)
GI50 (NCI-H23): 61.8 µM (inactive)
GI50 (K562): 30.5 µM (inactive)
GI50 (SF-539): > 100 µM (inactive)
GI50 (786-0): 44.5 µM (inactive)
GI50 (SN12C): 58.1 µM (inactive)
GI50 (LXFL 529): 28.1 µM (inactive)
GI50 (HCT-15): 31.1 µM
GI50 (M19-MEL): 88.3 µM (inactive)
GI50 (SNB-78): > 100 µM (inactive)
GI50 (LOX IMVI): 69 µM (inactive)
GI50 (CCRF-CEM): 21.7 µM (inactive)
GI50 (SF-295): > 100 µM (inactive)
GI50 (EKVX): 61.5 µM (inactive)
GI50 (RXF 631): > 100 µM (inactive)
GI50 (SF-268): 38 µM (inactive)
GI50 (KM12): > 100 µM (inactive)
GI50 (DMS-273): > 100 µM (inactive)
GI50 (SR): 26.9 µM (inactive)
GI50 (UACC-62): 30.5 µM (inactive)
GI50 (CAKI-1): 25.5 µM (inactive)
GI50 (DMS-114): 32.7 µM (inactive)
GI50 (SNB-19): 57.8 µM (inactive)
GI50 (A498): > 100 µM (inactive)
GI50 (SW-620): 35.5 µM (inactive)
GI50 (UO-31): > 100 µM (inactive)

O=S(=O)(N/N=C\c1c2ccccc2[n+]([O-])c2ccccc12)c1ccc(Cl)cc1
GI50 (HOP-92): > 100 µM (inactive)
GI50 (SK-MEL-28): > 100 µM (inactive)
GI50 (COLO 205): > 100 µM (inactive)
GI50 (NCI-H460): > 100 µM (inactive)
GI50 (NCI-H226): 30.3 µM (inactive)
GI50 (TK-10): > 100 µM (inactive)
GI50 (ACHN): 35.6 µM (inactive)
GI50 (SK-OV-3): > 100 µM (inactive)
GI50 (SNB-75): 26.1 µM (inactive)
GI50 (HL-60): > 100 µM (inactive)
GI50 (HT-29): > 100 µM (inactive)
GI50 (SK-MEL-5): > 100 µM (inactive)
GI50 (HCT-116): 45.5 µM (inactive)
GI50 (DLD-1): > 100 µM (inactive)
GI50 (RPMI-8226): > 100 µM (inactive)
GI50 (KM-20L2): > 100 µM (inactive)
GI50 (U-251): 94.4 µM (inactive)
GI50 (OVCAR-3): > 100 µM (inactive)
GI50 (OVCAR-5): > 100 µM (inactive)
GI50 (A549): > 100 µM (inactive)
GI50 (MOLT-4): 58.6 µM (inactive)
GI50 (HOP-18): 32.4 µM (inactive)
GI50 (IGROV-1): > 100 µM (inactive)
GI50 (NCI-H522): 93.8 µM (inactive)
GI50 (M14): > 100 µM (inactive)
GI50 (HOP-62): 80 µM (inactive)
GI50 (UACC-257): > 100 µM (inactive)
GI50 (SK-MEL-2): 46.1 µM (inactive)
GI50 (HCC 2998): > 100 µM (inactive)
GI50 (Malme-3M): 53.1 µM (inactive)
GI50 (OVCAR-4): 33.3 µM (inactive)
GI50 (NCI-H23): 85.5 µM (inactive)
GI50 (K562): 48.2 µM (inactive)
GI50 (786-0): 43.5 µM (inactive)
GI50 (SN12C): > 100 µM (inactive)
GI50 (LXFL 529): > 100 µM (inactive)
GI50 (HCT-15): > 100 µM
GI50 (M19-MEL): > 100 µM (inactive)
GI50 (SNB-78): > 100 µM (inactive)
GI50 (LOX IMVI): > 100 µM (inactive)
GI50 (CCRF-CEM): > 100 µM (inactive)
GI50 (SF-295): 66.4 µM (inactive)
GI50 (EKVX): > 100 µM (inactive)
GI50 (RXF 631): > 100 µM (inactive)
GI50 (SF-268): > 100 µM (inactive)
GI50 (KM12): > 100 µM (inactive)
GI50 (DMS-273): 93.3 µM (inactive)
GI50 (OVCAR-8): > 100 µM (inactive)
GI50 (UACC-62): > 100 µM (inactive)
GI50 (CAKI-1): > 100 µM (inactive)
GI50 (DMS-114): > 100 µM (inactive)
GI50 (SNB-19): 53.3 µM (inactive)
GI50 (A498): > 100 µM (inactive)
GI50 (SW-620): > 100 µM (inactive)
GI50 (UO-31): > 100 µM (inactive)

O=C(O)C12C3C4C1C1C2C3C41I (configuration not stated)
GI50 (HOP-92): > 100 µM (inactive)
GI50 (SK-MEL-28): > 100 µM (inactive)
GI50 (COLO 205): > 100 µM (inactive)
GI50 (NCI-H460): > 100 µM (inactive)
GI50 (NCI-H226): > 100 µM (inactive)
GI50 (TK-10): > 100 µM (inactive)
GI50 (ACHN): > 100 µM (inactive)
GI50 (SK-OV-3): > 100 µM (inactive)
GI50 (SNB-75): 70.6 µM (inactive)
GI50 (HL-60): > 100 µM (inactive)
GI50 (HT-29): > 100 µM (inactive)
GI50 (SK-MEL-5): > 100 µM (inactive)
GI50 (HCT-116): > 100 µM (inactive)
GI50 (DLD-1): > 100 µM (inactive)
GI50 (RPMI-8226): > 100 µM (inactive)
GI50 (KM-20L2): > 100 µM (inactive)
GI50 (U-251): > 100 µM (inactive)
GI50 (OVCAR-3): > 100 µM (inactive)
GI50 (OVCAR-5): > 100 µM (inactive)
GI50 (A549): > 100 µM (inactive)
GI50 (MOLT-4): > 100 µM (inactive)
GI50 (IGROV-1): > 100 µM (inactive)
GI50 (NCI-H522): > 100 µM (inactive)
GI50 (M14): > 100 µM (inactive)
GI50 (HOP-62): > 100 µM (inactive)
GI50 (UACC-257): > 100 µM (inactive)
GI50 (SK-MEL-2): > 100 µM (inactive)
GI50 (HCC 2998): > 100 µM (inactive)
GI50 (Malme-3M): > 100 µM (inactive)
GI50 (OVCAR-4): > 100 µM (inactive)
GI50 (NCI-H23): > 100 µM (inactive)
GI50 (K562): > 100 µM (inactive)
GI50 (SF-539): > 100 µM (inactive)
GI50 (786-0): > 100 µM (inactive)
GI50 (XF498): > 100 µM (inactive)
GI50 (SN12C): > 100 µM (inactive)
GI50 (LXFL 529): > 100 µM (inactive)
GI50 (HCT-15): > 100 µM
GI50 (M19-MEL): > 100 µM (inactive)
GI50 (SNB-78): > 100 µM (inactive)
GI50 (LOX IMVI): > 100 µM (inactive)
GI50 (CCRF-CEM): > 100 µM (inactive)
GI50 (SF-295): > 100 µM (inactive)
GI50 (EKVX): > 100 µM (inactive)
GI50 (RXF 631): > 100 µM (inactive)
GI50 (SF-268): > 100 µM (inactive)
GI50 (KM12): > 100 µM (inactive)
GI50 (DMS-273): > 100 µM (inactive)
GI50 (OVCAR-8): > 100 µM (inactive)
GI50 (UACC-62): > 100 µM (inactive)
GI50 (CAKI-1): > 100 µM (inactive)
GI50 (DMS-114): > 100 µM (inactive)
GI50 (SNB-19): > 100 µM (inactive)
GI50 (A498): > 100 µM (inactive)
GI50 (SW-620): > 100 µM (inactive)
GI50 (UO-31): > 100 µM (inactive)
